# Results as given in US20220265646A1, “PIEZO AGONISTS FOR PREVENTING OR REVERTING ABNORMAL AMYLOID DEPOSITION” (ITÄ-SUOMEN YLIOPISTO, priority 2019, published 2022).
# Assays:
# [1] = tested on: Balb-c mice subjected to pMCAo; experiment: Permanent middle cerebral artery occlusion (pMCAo) ischemic stroke model: MRI lesion size and adhesive removal test; assay type: in vivo, mouse; details: 1.78 mg/kg i.v.
# Experimental: Permanent middle cerebral artery occlusion for modelling ischemic stroke and treatment with Yoda. Balb-c mice were subjected to permanent middle cerebral artery occlusion (pMCAo). The anaesthesia was induced by 5% isoflurane in 30% oxygen and 70% nitrogen as a carrier gas and maintained with 2% isoflurane during the surgical operation. The temperature was kept constant (37 ±1° C.) using the heating blanket connected to the rectal probe (Harvard apparatus, PanLab, Barcelona, Spain). The temporal muscle was detached from the scull and a hole (1 mm of diameter) was drilled to temporal bone. After removing the dura the exposed left MCA was lifted and occluded using a thermocoagulator (Aaron Medical Industries Inc., Clearwater, Fla., USA). […]
# Lesion size measurement. The lesion volume was measured in vivo at 24 h and 72 h post ischemia by magnetic resonance imaging (MRI) using a vertical 9.4 T Oxford NMR 400 magnet (Oxford Instrument PLC, Abington, UK). […] Multislice T2-weighted images (repetition time 3000 ms, echo time 40 ms, matrix size 128×256, field of view 19.2×19.2 mm^2, slice thickness 0.8 mm and number of slices 12) were taken and the obtained images were analyzed with in-house made Aedes software under the Matlab environment (Math-works, Natick, Mass., USA).
# [2] = target: T1, Piezo channels in red blood cells (Mus musculus, UniProt E2JF22); experiment: Red blood cell (RBC) Ca2+ flux by flow cytometry; assay type: cell-based; details: 10 uM Yoda1, 17-23 weeks of age
# T1 construct: from tissue; host or cells: red blood cells from blood of 5xFAD transgenic mice and wild-type controls
# T1 sequence (E2JF22 whole entry): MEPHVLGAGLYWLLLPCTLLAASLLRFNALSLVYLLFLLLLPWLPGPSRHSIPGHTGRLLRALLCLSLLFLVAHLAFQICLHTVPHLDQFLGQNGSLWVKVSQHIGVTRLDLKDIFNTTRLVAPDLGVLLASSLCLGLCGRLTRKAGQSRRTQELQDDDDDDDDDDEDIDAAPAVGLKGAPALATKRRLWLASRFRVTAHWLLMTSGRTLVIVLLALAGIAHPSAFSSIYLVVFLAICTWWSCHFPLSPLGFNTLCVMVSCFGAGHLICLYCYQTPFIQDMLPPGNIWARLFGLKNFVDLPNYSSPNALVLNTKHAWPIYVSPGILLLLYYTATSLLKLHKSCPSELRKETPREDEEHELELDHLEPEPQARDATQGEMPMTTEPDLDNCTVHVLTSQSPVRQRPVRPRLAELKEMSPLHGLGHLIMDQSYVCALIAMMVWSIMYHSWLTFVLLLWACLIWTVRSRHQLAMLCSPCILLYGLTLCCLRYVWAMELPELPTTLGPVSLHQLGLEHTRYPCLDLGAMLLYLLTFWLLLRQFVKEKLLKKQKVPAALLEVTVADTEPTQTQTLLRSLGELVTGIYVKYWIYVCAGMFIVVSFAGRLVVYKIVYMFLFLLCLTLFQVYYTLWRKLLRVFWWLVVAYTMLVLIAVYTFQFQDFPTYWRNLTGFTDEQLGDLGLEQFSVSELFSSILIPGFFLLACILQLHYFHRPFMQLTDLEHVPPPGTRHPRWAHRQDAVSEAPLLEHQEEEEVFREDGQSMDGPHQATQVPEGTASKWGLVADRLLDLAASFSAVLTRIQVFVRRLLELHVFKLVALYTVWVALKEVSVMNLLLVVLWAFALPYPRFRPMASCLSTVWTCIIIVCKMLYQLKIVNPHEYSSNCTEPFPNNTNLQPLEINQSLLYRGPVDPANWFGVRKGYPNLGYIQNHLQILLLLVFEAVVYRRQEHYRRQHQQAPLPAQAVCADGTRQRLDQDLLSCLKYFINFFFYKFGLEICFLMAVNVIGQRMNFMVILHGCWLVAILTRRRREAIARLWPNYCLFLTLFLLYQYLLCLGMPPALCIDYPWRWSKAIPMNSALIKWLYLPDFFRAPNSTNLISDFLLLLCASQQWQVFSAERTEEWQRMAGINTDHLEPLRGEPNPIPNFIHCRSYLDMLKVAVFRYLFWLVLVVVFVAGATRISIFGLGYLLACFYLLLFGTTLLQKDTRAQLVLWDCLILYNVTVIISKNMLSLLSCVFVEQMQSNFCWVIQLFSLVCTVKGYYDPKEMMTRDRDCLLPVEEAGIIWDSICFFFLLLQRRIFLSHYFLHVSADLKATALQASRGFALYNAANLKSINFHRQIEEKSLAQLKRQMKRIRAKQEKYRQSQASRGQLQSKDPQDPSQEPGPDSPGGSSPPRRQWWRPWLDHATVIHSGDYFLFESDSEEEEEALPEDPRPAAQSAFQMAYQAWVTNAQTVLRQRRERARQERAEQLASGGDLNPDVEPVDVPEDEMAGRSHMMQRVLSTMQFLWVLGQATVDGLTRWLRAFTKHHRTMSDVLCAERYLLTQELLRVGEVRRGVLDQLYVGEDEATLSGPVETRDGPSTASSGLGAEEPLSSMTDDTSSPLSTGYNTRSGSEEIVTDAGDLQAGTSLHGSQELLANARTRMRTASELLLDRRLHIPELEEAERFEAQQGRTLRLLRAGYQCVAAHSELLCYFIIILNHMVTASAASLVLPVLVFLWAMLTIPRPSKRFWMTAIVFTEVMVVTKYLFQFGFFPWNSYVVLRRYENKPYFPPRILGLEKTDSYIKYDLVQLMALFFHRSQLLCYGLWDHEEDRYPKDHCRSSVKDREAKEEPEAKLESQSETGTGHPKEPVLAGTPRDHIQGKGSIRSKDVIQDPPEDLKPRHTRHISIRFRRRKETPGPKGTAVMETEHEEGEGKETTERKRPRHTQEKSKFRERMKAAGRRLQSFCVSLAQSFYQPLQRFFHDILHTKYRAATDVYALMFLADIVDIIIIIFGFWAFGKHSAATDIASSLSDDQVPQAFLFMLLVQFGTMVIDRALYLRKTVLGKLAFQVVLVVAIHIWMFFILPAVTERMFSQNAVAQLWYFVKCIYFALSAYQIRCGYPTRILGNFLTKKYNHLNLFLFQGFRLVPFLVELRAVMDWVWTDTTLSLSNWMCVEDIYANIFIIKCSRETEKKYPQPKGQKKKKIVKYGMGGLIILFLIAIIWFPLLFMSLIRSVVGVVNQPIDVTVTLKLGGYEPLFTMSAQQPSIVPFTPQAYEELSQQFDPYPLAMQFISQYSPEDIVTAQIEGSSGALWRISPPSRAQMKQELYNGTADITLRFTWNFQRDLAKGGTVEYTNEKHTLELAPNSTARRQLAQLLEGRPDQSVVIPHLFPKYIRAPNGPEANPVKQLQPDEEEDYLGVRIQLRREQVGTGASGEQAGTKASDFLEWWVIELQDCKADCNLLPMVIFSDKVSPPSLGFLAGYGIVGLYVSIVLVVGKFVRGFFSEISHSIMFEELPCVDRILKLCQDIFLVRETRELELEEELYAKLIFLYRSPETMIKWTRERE
# Experimental: The blood samples (50-100 μl) were collected from 5xFAD mice at different ages (13-15 weeks, 15-17 weeks, 17-19 weeks, 19-21 weeks and 21-23 weeks of age) for analysis of RBC Ca2 flux. Shortly, the blood samples were collected in Eppendorf tubes with sodium citrate to prevent coagulation. Then the samples were filtered through 100 μm filters to remove possible contaminants and aggregates, followed by two times wash with PBS (5 mins, 300g, RT) to remove plasma. 50 μl of red blood cells were transferred to dean tube and resuspended in 200 μl PBS (250 μl total volume of cell suspension). 250 μl of Fluo4 stock solution was added and cells were incubated for 30 minutes at 37° C. in dark. […] The Ca2+ flux was recorded by CytoFlex at high 60 μl/min flow rate. Recording was started at 20 sec run after the flow rate is stabilized, After 20 sec recording (baseline fluorescence), the Yoda1 at final concentration 10 μM was applied, at 4 min 20 sec time point (4 minutes after Yoda1 is added) ionomycin at 10 μM final concentration is added as positive control and sample is continued running until 6 min were up. Mean fluorescence intensity was measured using gates at different time points—baseline (before application of Yoda1 10 μM), at 1 min, 2 min, 3 min, at 4 min of recording. […]
# The samples were recorded for 6 minutes. […]
smiles,measurement,setting,value
Clc1cccc(Cl)c1CSc1nnc(-c2cnccn2)s1 [Yoda1],lesion size measured with MRI,"[1]; 1 DPI and 3 DPI, versus vehicle",significantly smaller lesion size
same,ability to sense adhesive patches post stroke (adhesive removal test),[1]; ischemic mice,no apparent deficits
same,"Yoda1 elicited calcium responses in red blood cells, TG 5xFAD versus age-matched WT",[2],significantly lower
